{
  "source": "paper PMC6514771",
  "about": "“A Stapled Peptide Mimic of the Pseudosubstrate Inhibitor PKI Inhibits Protein Kinase A” (Molecules, 2019)",
  "key": {"[1]": {"molecular_target": "human PKA catalytic isoform Cβ1 (PKA-Cβ1) (Homo sapiens, UniProt P22694)", "test": "Fluorescence polarization (FP) direct binding", "conditions": "FAM-labeled negative control peptide; three independent measurements with three protein preparations"}, "[2]": {"molecular_target": "human PKA catalytic isoform Cα (PKA-Cα) (Homo sapiens, UniProt P17612)", "test": "Fluorescence polarization (FP) direct binding", "conditions": "FAM-labeled negative control peptide; three independent measurements with three protein preparations"}},
  "data": [
    {"substance": "βA-TTY*DFI*SGRTGFFNAIHD (sidechain bridge or staple) [negative control peptide]", "values": [
      {"measurement": "binding to PKA-Cb (FP)", "setting": "[1]", "result": "No binding"},
      {"measurement": "binding to PKA-Ca (FP)", "setting": "[2]", "result": "No binding"}
    ]}
  ]
}
